In US12486278B2, “MASP-2 inhibitors and methods of use” (Omeros Corporation, priority 2019, dated 2025):
Structures can show the parent of a compound that is named as a salt.

Biological target: T1, MASP-2 (CCP1-CCP2-SP) (Homo sapiens, UniProt O00187)
T1 construct: 15 μL of Enzyme MASP-2 (CCP1-CCP2-SP) in Assay Buffer
Test: Enzymatic Assay for MASP-2 (fluorogenic substrate)
Format: biochemical
Settings: fluorogenic substrate based on C2 cleavage site; room temperature, 20 min; 20 mM HEPES pH 7.4, 140 mM NaCl, 0.1% Tween 20
Description: The MASP-2 assay utilizes a fluorogenic substrate, based on the cleavage site for its natural substrate C2. The assay is run at room temperature in an assay buffer containing 20 mM HEPES, pH 7.4, 140 mM NaCl and 0.1% Tween 20. Assay parameters are adjusted such that the assay is linear with respect to time, enzyme, and substrate concentrations. Under these optimized assays conditions, IC50 values are equivalent to Ki values, except in a few cases of “tight binding” inhibitors. Cases of “tight binding” or possible “slow binding” inhibitors are handled by the methods described in Copeland R. A. (2013) Evaluation of Enzyme Inhibitors in Drug Discovery. 2nd Ed., John Wiley and Sons, Inc., Chapters 5-7.
The MASP-2 assay protocol is carried out as follows. Test compounds are serially diluted in DMSO and then 100 nL of each dilution is transferred to the assay plate(s). 10 μL of Assay Buffer is added, followed by 15 μL of Enzyme MASP-2 (CCP1-CCP2-SP) in Assay Buffer. 15 μL of Substrate in Assay Buffer is then added and mixed to start the reactions. After 20 min at room temperature, 15 μL of a stop solution (0.1 M acetic acid) is added, mixed and the plates are read on a SpectraMax i3x Microplate Reader and exported as Excel files. Each assay plate included a “no inhibitor” (DMSO Only) control, a “no enzyme” control and a reference inhibitor control. % Activity values=100*(average test comp. fluorescence−average “no enzyme” fluorescence)/(average “DMSO only” fluorescence−average “no enzyme” fluorescence). IC50 and Ki values are very reproducible, falling well within ±2-fold.

T1 sequence (O00187 445-686 limits assumed): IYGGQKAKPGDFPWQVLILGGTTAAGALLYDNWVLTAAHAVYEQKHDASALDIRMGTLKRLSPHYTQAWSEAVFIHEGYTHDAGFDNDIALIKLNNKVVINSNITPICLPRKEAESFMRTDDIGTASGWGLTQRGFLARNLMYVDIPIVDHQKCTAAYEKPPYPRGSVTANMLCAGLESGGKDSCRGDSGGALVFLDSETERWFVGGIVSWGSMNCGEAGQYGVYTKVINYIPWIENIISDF
T1 sequence (O00187 298-444 partner limits assumed): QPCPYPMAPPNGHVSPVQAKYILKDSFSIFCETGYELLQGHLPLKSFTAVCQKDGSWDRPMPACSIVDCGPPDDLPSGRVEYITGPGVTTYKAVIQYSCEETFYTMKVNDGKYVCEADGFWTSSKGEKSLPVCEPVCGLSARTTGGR

Ki	SMILES
< 500 nM	C[C@H](NC(=O)c1cc(Cc2ccc(-c3ccccc3)cc2)c[nH]1)C(=O)NCc1ccc(C(=N)N)cc1 [Compound I-100, (S)-4-([1,1′-Biphenyl]-4-ylmethyl)-N-(1-((4-carbamimidoylbenzyl)amino)-1-oxopropan-2-yl)-1H-pyrrole-2-carboxamide trifluoroacetate]
< 500 nM	C[C@H](NC(=O)[C@H]1C[C@H](c2ccccc2)CN1)C(=O)NCc1[nH]c2ccncc2c1F [Compound I-7, (2R,4R)—N—((S)-1-(((3-Fluoro-1H-Pyrrolo[3,2-C]Pyridin-2-Yl)Methyl)Amino)-1-Oxopropan-2-Yl)-4-Phenylpyrrolidine-2-Carboxamide Di-Trifluoroacetate]
< 500 nM	Cc1nc(N)ccc1CNC(=O)[C@H](C)NC(=O)[C@H]1C[C@H](Cc2ccc(C(F)(F)F)s2)CN1 [Compound I-89, (2R,4R)—N—((S)-1-(((6-Amino-2-Methylpyridin-3-Yl)Methyl)Amino)-1-Oxopropan-2-Yl)-4-((5-(Trifluoromethyl)Thiophen-2-Yl)Methyl)Pyrrolidine-2-Carboxamide Dihydrochloride]
< 500 nM	C[C@H](NC(=O)[C@H]1C[C@H](Cc2ccc(F)cc2)CN1CCC(=O)O)C(=O)NCc1ccc(C(=N)N)cc1 [Compound I-37, 3-((2R,4S)-2-(((S)-1-((4-Carbamimidoylbenzyl)Amino)-1-Oxopropan-2-Yl)Carbamoyl)-4-(4-Fluorobenzyl)Pyrrolidin-1-Yl)Propanoic Acid Di-Trifluoroacetate]
< 500 nM	C[C@H](NC(=O)[C@H]1C[C@H](Cc2cc(Br)c(Cl)s2)CN1)C(=O)NCc1cnc2c(c1)c(Cl)cn2C [Compound I-19, (2R,4R)-4-((4-Bromo-5-Chlorothiophen-2-Yl)Methyl)-N—((S)-1-(((3-Chloro-1-Methyl-1H-Pyrrolo[2,3-B]Pyridin-5-Yl)Methyl)Amino)-1-Oxopropan-2-Yl)Pyrrolidine-2-Carboxamide Trifluoroacetate]
< 500 nM	C[C@H](NC(=O)[C@H]1C[C@@H](c2ccc3ccccc3c2)CCN1)C(=O)NCc1ccc(C(=N)N)cc1 [Compound I-70, (2R,4S)—N—((S)-1-((4-Carbamimidoylbenzyl)Amino)-1-Oxopropan-2-Yl)-4-(Naphthalen-2-Yl)Piperidine-2-Carboxamide Di-Trifluoroacetate]
< 500 nM	C[C@H](NC(=O)[C@H]1C[C@H](Cc2ccccc2)CN1)C(=O)NCc1cnc2scc(Cl)c2c1 [Compound I-11, (2R,4S)-4-Benzyl-N—((S)-1-(((3-Chlorothieno[2,3-B]Pyridin-5-Yl)Methyl)Amino)-1-Oxopropan-2-Yl)Pyrrolidine-2-Carboxamide Trifluoroacetate]
< 500 nM	C[C@H](NC(=O)[C@H]1C[C@H](Cc2ccc(F)c(Cl)c2)CN1CCC(=O)O)C(=O)NCc1ccc(C(=N)N)cc1 [Compound I-36, 3-((2R,4S)-2-(((S)-1-((4-Carbamimidoylbenzyl)Amino)-1-Oxopropan-2-Yl)Carbamoyl)-4-(3-Chloro-4-Fluorobenzyl)Pyrrolidin-1-Yl)Propanoic Acid Di-Trifluoroacetate]
< 500 nM	Cc1cccc(C2CN[C@@H](C(=O)N[C@@H](C)C(=O)NCc3ccc(C(=N)N)cc3)C2)c1 (single isomer, unassigned) [Compound I-14, N-(1-((4-Carbamimidoylbenzyl)amino)-1-oxopropan-2-yl)-4-(m-tolyl)pyrrolidine-2-carboxamide]
< 500 nM	Cc1cc(C)n(-c2ccc([C@H]3CCN[C@@H](C(=O)N[C@@H](C)C(=O)NCc4ccc(C(=N)N)cc4)C3)cc2)n1 [Compound I-75, (2R,4S)—N—((S)-1-((4-Carbamimidoylbenzyl)Amino)-1-Oxopropan-2-Yl)-4-(4-(3,5-Dimethyl-1H-Pyrazol-1-Yl)Phenyl)Piperidine-2-Carboxamide Dihydrochloride]
< 500 nM	C[C@H](NC(=O)[C@H]1C[C@@H](c2ccccc2)CCN1CCNS(C)(=O)=O)C(=O)NCc1ccc(C(=N)N)cc1 [Compound I-43, (2R,4S)—N—((S)-1-((4-Carbamimidoylbenzyl)Amino)-1-Oxopropan-2-Yl)-1-(2-(Methylsulfonamido)Ethyl)-4-Phenylpiperidine-2-Carboxamide Di-Trifluoroacetate]
< 500 nM	C[C@H](NC(=O)[C@H]1C[C@@H](c2ccccc2)CCN1CCP(=O)(O)O)C(=O)NCc1ccc(C(=N)N)cc1 [Compound I-38, (2-((2R,4S)-2-(((S)-1-((4-Carbamimidoylbenzyl)Amino)-1-Oxopropan-2-Yl)Carbamoyl)-4-Phenylpiperidin-1-Yl)Ethyl)Phosphonic Acid Di-Trifluoroacetate]
< 500 nM	Cc1nc(N)ccc1CNC(=O)[C@H](C)NC(=O)[C@H]1C[C@H](Cc2cc(Cl)cs2)CN1 [Compound I-87, (2R,4R)—N—((S)-1-(((6-Amino-2-Methylpyridin-3-Yl)Methyl)Amino)-1-Oxopropan-2-Yl)-4-((4-Chlorothiophen-2-Yl)Methyl)Pyrrolidine-2-Carboxamide Dihydrochloride]
< 500 nM	C[C@H](NC(=O)[C@H]1C[C@@H](c2ccccc2)CCN1CC(=O)O)C(=O)NCc1ccc(C(=N)N)cc1 [Compound I-34, 2-((2R,4S)-2-(((S)-1-((4-Carbamimidoylbenzyl)Amino)-1-Oxopropan-2-Yl)Carbamoyl)-4-Phenylpiperidin-1-Yl)Acetic Acid Di-Trifluoroacetate]
< 500 nM	C[C@H](NC(=O)[C@H]1C[C@@H](c2ccc(-c3ccccc3)cc2)CCN1)C(=O)NCc1ccc(C(=N)N)cc1 [Compound I-69, (2R,4S)-4-([1,1′-Biphenyl]-4-Yl)-N—((S)-1-((4-Carbamimidoylbenzyl)Amino)-1-Oxopropan-2-Yl)Piperidine-2-Carboxamide Di-Trifluoroacetate]
< 500 nM	Cc1nc(N)ccc1CNC(=O)[C@H](C)NC(=O)[C@H]1C[C@H](Cc2ccc(C(=O)O)cc2)CN1 [Compound I-51, 4-(((3S,5R)-5-(((S)-1-(((6-Amino-2-Methylpyridin-3-Yl)Methyl)Amino)-1-Oxopropan-2-Yl)Carbamoyl)Pyrrolidin-3-Yl)Methyl)Benzoic Acid Di-Trifluoroacetate]
2500 to 10000 nM	C[C@H](NC(=O)[C@H]1C[C@@H](c2ccccc2)CCN1CCC(=O)O)C(=O)NCc1cc(Cl)ccc1-n1cnnn1 [Compound I-29, 3-((2R,4S)-2-(((S)-1-((5-Chloro-2-(1H-Tetrazol-1-Yl)Benzyl)Amino)-1-Oxopropan-2-Yl)Carbamoyl)-4-Phenylpiperidin-1-Yl)Propanoic Acid Trifluoroacetate]
< 500 nM	C[C@H](NC(=O)[C@H]1C[C@@H](c2cccc(-n3cccn3)c2)CCN1)C(=O)NCc1cc(Cl)ccc1-n1cnnn1 [Compound I-79, (2R,4S)-4-(3-(1H-Pyrazol-1-Yl)Phenyl)-N—((S)-1-((5-Chloro-2-(1H-Tetrazol-1-Yl)Benzyl)Amino)-1-Oxopropan-2-Yl)Piperidine-2-Carboxamide Dihydrochloride]
< 500 nM	C[C@H](NC(=O)[C@H]1C[C@H](Cc2cccc(Cl)c2)CN1)C(=O)NCc1cc2cnccc2[nH]1 [Compound I-5, (2R,4S)—N—((S)-1-(((1H-Pyrrolo[3,2-c]pyridin-2-yl)methyl)amino)-1-oxopropan-2-yl)-4-(3-chlorobenzyl)pyrrolidine-2-carboxamide di-trifluoroacetate]
